One compound from ChEMBL document CHEMBL5661979, “Pharmacological inhibition of BMK1 suppresses tumor growth through promyelocytic leukemia protein” (Cancer Cell, 2010) can be followed below.

In this assay the target is Mitogen-activated protein kinase; ERK1/ERK2 (Homo sapiens) (UniProt P27361+P28482). The experiment in a line: Inhibition of ERK1/2 in human HeLa cells assessed as reduction in EGF-induced ERK1/2 phosphorylation level at T202/Y204 residue at 1 uM pre incubated for 1 hr followed by EGF stimulation and measured after 17 mins by Western blot analysis. The format is cell-based. To be noted: time 77.0 min. For orientation: Immunoblotting shows a protein as a band on a membrane.

Calls of active or inactive are those of the source. The calls are words filed in the database; no cut-off is given here.

Chain of Mitogen-activated protein kinase; ERK1/ERK2 (Homo sapiens) (P27361 whole entry, looked up): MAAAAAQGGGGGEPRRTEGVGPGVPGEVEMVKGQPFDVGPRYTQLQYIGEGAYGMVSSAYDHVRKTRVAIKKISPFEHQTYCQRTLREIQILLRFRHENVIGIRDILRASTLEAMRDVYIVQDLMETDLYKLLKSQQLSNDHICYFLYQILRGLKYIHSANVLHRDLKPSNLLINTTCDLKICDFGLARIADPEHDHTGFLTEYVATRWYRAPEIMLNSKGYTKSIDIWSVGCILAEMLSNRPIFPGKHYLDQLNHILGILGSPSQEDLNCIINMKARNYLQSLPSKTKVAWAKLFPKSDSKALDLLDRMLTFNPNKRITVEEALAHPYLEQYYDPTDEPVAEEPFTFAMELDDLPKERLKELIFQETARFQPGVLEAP
Chain of Mitogen-activated protein kinase; ERK1/ERK2 (Homo sapiens) (P28482 whole entry, looked up): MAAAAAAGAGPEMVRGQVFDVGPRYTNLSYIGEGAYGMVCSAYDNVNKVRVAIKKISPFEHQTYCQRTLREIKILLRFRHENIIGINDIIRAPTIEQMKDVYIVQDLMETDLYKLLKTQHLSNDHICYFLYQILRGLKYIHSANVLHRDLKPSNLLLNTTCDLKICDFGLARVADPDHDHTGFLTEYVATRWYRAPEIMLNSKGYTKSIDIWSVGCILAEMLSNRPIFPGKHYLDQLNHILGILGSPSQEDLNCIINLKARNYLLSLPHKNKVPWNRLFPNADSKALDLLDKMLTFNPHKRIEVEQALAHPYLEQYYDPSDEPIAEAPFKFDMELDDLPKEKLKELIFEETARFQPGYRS

For `O=C(NOCC1CC1)c1ccc(F)c(F)c1Nc1ccc(I)cc1Cl`, the inhibition result is “Active”.
